This assay concerns the target T1, Recombinant human HDAC6 (Homo sapiens, UniProt Q9UBN7).
T1 construct: full length, MW=159 kDa; GST (N); host or cells: Sf9 insect cells (baculovirus)
T1 sequence (Q9UBN7 1-1215): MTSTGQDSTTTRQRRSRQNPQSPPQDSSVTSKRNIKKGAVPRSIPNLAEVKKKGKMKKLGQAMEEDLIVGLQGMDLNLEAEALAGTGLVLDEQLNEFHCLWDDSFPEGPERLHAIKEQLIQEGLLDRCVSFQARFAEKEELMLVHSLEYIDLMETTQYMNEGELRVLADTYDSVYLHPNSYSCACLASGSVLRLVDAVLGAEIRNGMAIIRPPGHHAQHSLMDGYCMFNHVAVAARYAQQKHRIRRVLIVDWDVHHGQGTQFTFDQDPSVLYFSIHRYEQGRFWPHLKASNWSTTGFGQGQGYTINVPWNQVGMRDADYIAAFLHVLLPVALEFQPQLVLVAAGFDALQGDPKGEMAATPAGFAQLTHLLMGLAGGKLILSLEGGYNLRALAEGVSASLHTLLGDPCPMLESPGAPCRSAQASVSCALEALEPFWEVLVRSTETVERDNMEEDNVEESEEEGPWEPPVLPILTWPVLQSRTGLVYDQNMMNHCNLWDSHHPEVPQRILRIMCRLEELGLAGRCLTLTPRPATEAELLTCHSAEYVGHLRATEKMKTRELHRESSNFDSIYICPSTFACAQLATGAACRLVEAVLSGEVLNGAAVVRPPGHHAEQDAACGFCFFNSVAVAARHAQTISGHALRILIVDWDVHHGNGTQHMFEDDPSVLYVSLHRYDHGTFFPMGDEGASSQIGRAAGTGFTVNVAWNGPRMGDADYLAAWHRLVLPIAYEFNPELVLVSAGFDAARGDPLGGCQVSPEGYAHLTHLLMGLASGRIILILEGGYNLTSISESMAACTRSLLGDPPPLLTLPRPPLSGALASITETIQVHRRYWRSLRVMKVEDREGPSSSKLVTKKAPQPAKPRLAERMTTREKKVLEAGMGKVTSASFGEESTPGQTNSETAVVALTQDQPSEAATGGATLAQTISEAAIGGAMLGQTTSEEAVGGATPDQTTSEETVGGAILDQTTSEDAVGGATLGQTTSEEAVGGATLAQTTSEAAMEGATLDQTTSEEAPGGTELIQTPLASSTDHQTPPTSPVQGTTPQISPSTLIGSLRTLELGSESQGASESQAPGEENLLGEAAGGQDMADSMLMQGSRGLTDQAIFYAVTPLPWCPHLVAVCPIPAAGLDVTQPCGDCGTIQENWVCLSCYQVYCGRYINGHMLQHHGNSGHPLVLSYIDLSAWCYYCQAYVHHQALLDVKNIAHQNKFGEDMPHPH
In words: HDAC6 biochemical assay, AMC-labeled peptide substrate. Conditions: HDAC6; read-out: HDAC Isoform IC50 (nM) 6. The gist of the method:
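Two-step fluorogenic read-out: enzyme deacetylates 50 μM RHKK(Ac)AMC for 1 h at 30° C in pH 8.0 Tris buffer with BSA and 1% DMSO, then developer cleavage gives signal at Ex 360/Em 460. Enzyme: 0.3 ng/ul recombinant full-length human HDAC6, GST-tagged, Sf9-expressed.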

IC50 data for 14 molecules are collected here from patent publication US20210038607A1, “OXADIAZOLYLTHIOPHENE DERIVATIVES USEFUL AS HISTONE DEACETYLASE INHIBITORS” (Karus Therapeutics Limited, priority 2018, published 2021).

Usually IC50 stands for the point on the concentration scale where inhibition reaches its midpoint.

SMILES strings stand for the structures. A value given as a limit tells only on which side of the number the result lay.

Regarding `FC(F)(F)c1nc(-c2ccc(CN(c3cnccn3)c3cc(-c4ccccn4)cnn3)s2)no1` [Example GM, N-(Pyrazin-2-yl)-5-(pyridin-2-yl)-N-({5-[5-(trifluoromethyl)-1,2,4-oxadiazol-3-yl]thiophen-2-yl}methyl)pyridazin-3-amine], the IC50 is not above 500 nM.

Consider `Cc1nccnc1N(Cc1ccc(-c2noc(C(F)(F)F)n2)s1)c1cnccn1` [Example BE, 3-Methyl-N-(pyrazin-2-yl)-N-({5-[5-(trifluoromethyl)-1,2,4-oxadiazol-3-yl]thiophen-2-yl}methyl)pyrazin-2-amine], for which the IC50 was not above 500 nM.

For `CC(C)OC1CN(C(=O)c2cnnc(N(Cc3ccc(-c4noc(C(F)(F)F)n4)s3)c3cnccn3)c2)C1` [Example GC, 5-[3-(Propan-2-yloxy)azetidine-1-carbonyl]-N-(pyrazin-2-yl)-N-({5-[5-(trifluoromethyl)-1,2,4-oxadiazol-3-yl]thiophen-2-yl}methyl)pyridazin-3-amine], the IC50 was not above 500 nM.

Take `O=C(c1ccc(N(Cc2ccc(-c3noc(C(F)(F)F)n3)s2)c2cnccn2)nn1)N1CCCC1` [Example FI, N-(Pyrazin-2-yl)-6-(pyrrolidine-1-carbonyl)-N-({5-[5-(trifluoromethyl)-1,2,4-oxadiazol-3-yl]thiophen-2-yl}methyl)pyridazin-3-amine]: the IC50 is not above 500 nM.

For `O=C(c1ccc(N(Cc2ccc(-c3noc(C(F)(F)F)n3)s2)c2cnccn2)nn1)N1C[C@@H]2C[C@H]1CO2` [Example FE, 6-[(1S,4S)-2-Oxa-5-azabicyclo[2.2.1]heptane-5-carbonyl]-N-(pyrazin-2-yl)-N-({5-[5-(trifluoromethyl)-1,2,4-oxadiazol-3-yl]thiophen-2-yl}methyl)pyridazin-3-amine], the IC50 was not above 500 nM.

With `NC(=O)c1nccnc1N(Cc1ccc(-c2noc(C(F)(F)F)n2)s1)c1cnccn1` [Example GO, 3-[(Pyrazin-2-yl)({5-[5-(trifluoromethyl)-1,2,4-oxadiazol-3-yl]thiophen-2-yl}methyl)amino]pyrazine-2-carboxamide], the IC50 is not above 1000 nM.

On to `O=C(c1cnnc(N(Cc2ccc(-c3noc(C(F)(F)F)n3)s2)c2cnccn2)c1)N1CC(O)(C(F)(F)F)C1` [Example GD, 1-{6-[(Pyrazin-2-yl)({5-[5-(trifluoromethyl)-1,2,4-oxadiazol-3-yl]thiophen-2-yl}methyl)amino]pyridazine-4-carbonyl}-3-(trifluoromethyl)azetidin-3-ol], for which the half-maximal inhibitory concentration (IC50) is not above 500 nM.

With `O=C(c1cnnc(N(Cc2ccc(-c3noc(C(F)(F)F)n3)s2)c2cnccn2)c1)N1CCC12COC2` [Example GF, 5-{6-Oxa-1-azaspiro[3.3]heptane-1-carbonyl}-N-(pyrazin-2-yl)-N-({5-[5-(trifluoromethyl)-1,2,4-oxadiazol-3-yl]thiophen-2-yl}methyl)pyridazin-3-amine], the IC50 is not above 500 nM.

Turning to `FC(F)(F)c1nc(-c2ccc(CN(c3cnccn3)c3ccc(CN4CCOCC4)nn3)s2)no1` [Example FN, 6-[(Morpholin-4-yl)methyl]-N-(pyrazin-2-yl)-N-({5-[5-(trifluoromethyl)-1,2,4-oxadiazol-3-yl]thiophen-2-yl}methyl)pyridazin-3-amine], the IC50 was not above 500 nM.

As for `COC1CN(Cc2ccnc(N(Cc3ccc(-c4noc(C(F)(F)F)n4)s3)c3cnccn3)c2)C1` [Example GH, N-{4-[(3-Methoxyazetidin-1-yl)methyl]pyridin-2-yl}-N-({5-[5-(trifluoromethyl)-1,2,4-oxadiazol-3-yl]thiophen-2-yl}methyl)pyrazin-2-amine], the concentration for half-maximal inhibition (IC50) is not above 500 nM.

As for `O=C(c1nccnc1N(Cc1ccc(-c2noc(C(F)(F)F)n2)s1)c1cnccn1)N1CCC1` [Example GP, 3-(Azetidine-1-carbonyl)-N-(pyrazin-2-yl)-N-({5-[5-(trifluoromethyl)-1,2,4-oxadiazol-3-yl]thiophen-2-yl}methyl)pyrazin-2-amine], the IC50 is not above 1000 nM.

For the molecule `O=C(c1cnnc(N(Cc2ccc(-c3noc(C(F)(F)F)n3)s2)c2cnccn2)c1)N1CCS(=O)(=O)CC1` [Example ED, 4-{6-[(Pyrazin-2-yl)({5-[5-(trifluoromethyl)-1,2,4-oxadiazol-3-yl]thiophen-2-yl}methyl)amino]pyridazine-4-carbonyl}-1λ^6-thiomorpholine-1,1-dione], the half-inhibitory concentration (IC50) was not above 500 nM.

Regarding `C[C@H]1CCCN1C(=O)c1cnnc(N(Cc2ccc(-c3noc(C(F)(F)F)n3)s2)c2cnccn2)c1` [Example GY, 5-[(2S)-2-Methylpyrrolidine-1-carbonyl]-N-(pyrazin-2-yl)-N-({5-[5-(trifluoromethyl)-1,2,4-oxadiazol-3-yl]thiophen-2-yl}methyl)pyridazin-3-amine], the IC50 was not above 500 nM.

Regarding `O=C(c1cnnc(N(Cc2ccc(-c3noc(C(F)(F)F)n3)s2)c2cnccn2)c1)N1C2CCC1COC2` [Example GB, 5-{3-Oxa-8-azabicyclo[3.2.1]octane-8-carbonyl}-N-(pyrazin-2-yl)-N-({5-[5-(trifluoromethyl)-1,2,4-oxadiazol-3-yl]thiophen-2-yl}methyl)pyridazin-3-amine], the 50% inhibitory concentration (IC50) was not above 500 nM.
